Columns and labels:
[1] = target: hGYS1 enzyme (recombinant hGYS1/GN1 protein) (Homo sapiens (Human), UniProt P13807); assay: GYS1 coupled enzyme assay (PK/LDH); format: biochemical; details: hGYS1/GN1 50 nM, UDP-Glucose 0.8 mM, G6P 1 mM; geometric mean of at least 2 runs
[2] = system: hGYS1 enzyme / glycogen synthesis in HeLa cells; assay: GYS1 cell based assay (glycogen synthesis, Glucose-glo); parameters: species or system human; details: 24 h incubation, 20 mM glucose, geometric mean of at least 2 runs
Method in brief: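 HeLa cells starved 24 h in medium containing only 1× Glutamax were plated onto compound in medium with 20 mM glucose (1% DMSO final) for 24 h, 37 °C, 5% CO2. Acid lysates were Tris-quenched, glucoamylase-digested (pH 5.3, 1 h, 37 °C) and read by Glucose-glo luminescence. IC50 came from Hill fits, as geometric mean of ≥2 runs.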

Chain of hGYS1 enzyme (recombinant hGYS1/GN1 protein) (P13807 whole entry): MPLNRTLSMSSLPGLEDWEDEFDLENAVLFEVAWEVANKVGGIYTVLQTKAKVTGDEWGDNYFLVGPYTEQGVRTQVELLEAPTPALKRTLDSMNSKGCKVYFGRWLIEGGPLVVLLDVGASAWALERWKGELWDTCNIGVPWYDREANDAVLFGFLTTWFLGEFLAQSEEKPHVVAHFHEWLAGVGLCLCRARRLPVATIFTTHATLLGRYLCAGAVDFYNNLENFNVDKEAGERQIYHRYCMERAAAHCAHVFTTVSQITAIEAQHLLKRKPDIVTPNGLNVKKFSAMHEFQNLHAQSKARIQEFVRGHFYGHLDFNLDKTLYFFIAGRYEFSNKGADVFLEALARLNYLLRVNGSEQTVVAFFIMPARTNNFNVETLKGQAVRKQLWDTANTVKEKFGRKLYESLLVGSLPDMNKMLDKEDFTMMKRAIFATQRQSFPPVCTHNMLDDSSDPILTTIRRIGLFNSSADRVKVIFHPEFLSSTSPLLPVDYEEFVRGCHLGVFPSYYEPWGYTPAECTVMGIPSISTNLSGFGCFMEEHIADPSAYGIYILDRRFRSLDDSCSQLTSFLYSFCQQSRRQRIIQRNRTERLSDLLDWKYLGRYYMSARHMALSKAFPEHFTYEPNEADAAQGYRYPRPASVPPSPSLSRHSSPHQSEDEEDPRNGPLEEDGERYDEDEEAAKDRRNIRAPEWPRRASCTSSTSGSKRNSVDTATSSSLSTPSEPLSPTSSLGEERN
Chain of hGYS1 enzyme (recombinant hGYS1/GN1 protein) (P46976 whole entry partner): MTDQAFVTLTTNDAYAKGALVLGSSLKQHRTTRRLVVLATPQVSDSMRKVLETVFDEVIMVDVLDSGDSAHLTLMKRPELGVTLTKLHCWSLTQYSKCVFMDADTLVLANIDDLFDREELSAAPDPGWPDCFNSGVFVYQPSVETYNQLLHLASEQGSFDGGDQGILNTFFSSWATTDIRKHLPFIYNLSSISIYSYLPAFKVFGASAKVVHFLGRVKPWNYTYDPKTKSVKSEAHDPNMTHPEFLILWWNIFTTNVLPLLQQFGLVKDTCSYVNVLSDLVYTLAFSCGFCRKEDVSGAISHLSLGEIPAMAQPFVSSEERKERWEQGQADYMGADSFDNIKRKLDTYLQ

| Molecule | IC50 [1] [nM] | IC50 ([2]; Homo sapiens, HeLa, 24 h) [nM] | IC50 [2] [nM] |
| --- | --- | --- | --- |
| CC(=O)NCC(=O)N1C[C@H](F)C[C@H]1C(=O)NC(c1cccc(-c2ccn[nH]2)c1)c1ccc(C(C)C)c(F)n1 (single isomer, unassigned) [Compound 691, (2S,4R)-1-(2-acetamidoacetyl)-4-fluoro-N-[(S) or (R)-[6-fluoro-5-(propan-2-yl)pyridin-2-yl][3-(1H-pyrazol-5-yl)phenyl]methyl] pyrrolidine-2-carboxamide] | 15 | 390 |  |
| CCOc1ncc(CC(=O)N2C[C@H](F)C[C@H]2C(=O)N[C@@H](c2ccccc2)c2ccc(C(C)C)c(F)n2)cc1C [Compound 798, (2S,4R)-1-[2-(6-ethoxy-5-methylpyridin-3-yl)acetyl]-4-fluoro-N-[(S)-[6-fluoro-5-(propan-2-yl)pyridin-2-yl](phenyl)methyl] pyrrolidine-2-carboxamide] | 12 | 220 |  |
| CC(C)c1ccc([C@@H](NC(=O)[C@@H]2C[C@@H](F)CN2C(=O)Cn2cnnc2)c2ccccc2)nc1 [Compound 285, (2S,4R)-4-fluoro-N-[(S)-phenyl[5-(propan-2-yl)pyridin-2-yl]methyl]-1-[2-(4H-1,2,4-triazol-4-yl)acetyl]pyrrolidine-2-carboxamide] | 149 | > 18600 |  |
| CCn1ccnc(CC(=O)N2C[C@H](F)C[C@H]2C(=O)N[C@@H](c2ccccc2)c2ccc(C3CC(F)(F)C3)c(F)n2)c1=O [Compound 531, (2S,4R)-N-[(S)-[5-(3,3-difluorocyclobutyl)-6-fluoropyridin-2-yl](phenyl)methyl]-1-[2-(4-ethyl-3-oxo-3,4-dihydropyrazin-2-yl)acetyl]-4-fluoropyrrolidine-2-carboxamide] | 8 | 60 |  |
| CCOc1ncc(CC(=O)N2C[C@H](F)C[C@H]2C(=O)N[C@@H](c2ccccc2)c2ccc(C3CC3)c(F)n2)cc1C [Compound 737, (2S,4R)-N-[(S)-(5-cyclopropyl-6-fluoropyridin-2-yl)(phenyl)methyl]-1-[2-(6-ethoxy-5-methylpyridin-3-yl)acetyl]-4-fluoropyrrolidine-2-carboxamide] | 37 | 550 |  |
| O=C(N[C@@H](c1ccccc1)c1ccc(C2CC(F)(F)C2)c(F)n1)[C@@H]1C[C@@H](F)CN1C(=O)Cc1c[nH]c(=O)cn1 [Compound 530, (2S,4R)-N-[(S)-[5-(3,3-difluorocyclobutyl)-6-fluoropyridin-2-yl](phenyl)methyl]-4-fluoro-l-[2-(5-oxo-4,5-dihydropyrazin-2-yl)acetyl]pyrrolidine-2-carboxamide] | 12 | 910 |  |
| CC(C)c1ccc([C@@H](NC(=O)[C@@H]2C[C@@H](F)CN2C(=O)Cn2nncc2N2CC(F)(F)C2)c2ccccc2)nc1 [Compound 714, (2S,4R)-1-{2-[5-(3,3-difluoroazetidin-1-yl)-1H-1,2,3-triazol-1-yl]acetyl}-4-fluoro-N-[(S)-phenyl[5-(propan-2-yl)pyridin-2-yl]methyl]pyrrolidine-2-carboxamide] | 45 | 1390 |  |
| CCn1cc(N(C)CC(=O)N2C[C@H](F)C[C@H]2C(=O)N[C@@H](c2ccccc2)c2ccc(C3CC3)c(F)c2)nn1 [Compound 473, (2S,4R)-N-[(S)-(4-cyclopropyl-3-fluorophenyl)(phenyl)methyl]-1-{2-[(1-ethyl-1H-1,2,3-triazol-4-yl)(methyl)amino]acetyl}-4-fluoropyrrolidine-2-carboxamide] | 100 | 1770 |  |
| (2S,4R)-4-fluoro- N-[(S) or (R)-[6- fluoro-5-(propan- 2-yl)pyridin-2- yl][3-(1,2-oxazol-5- yl)phenyl]methyl]- 1-[2-(1H-1,2,3- triazol-5- yl)acetyl]pyrrolidine- 2-carboxamide [Compound 694] | 34 |  | 1210 |
| O=C(N[C@@H](c1ccccc1)c1ccc(C2CC2)c(F)n1)[C@@H]1C[C@@H](F)CN1C(=O)Cn1cnnc1C(F)F [Compound 759, (2S,4R)-N-[(S)-(5-cyclopropyl-6-fluoropyridin-2-yl)(phenyl)methyl]-1-{2-[3-(difluoromethyl)-4H-1,2,4-triazol-4-yl]acetyl}-4-fluoropyrrolidine-2-carboxamide] | 18 | 590 |  |
| COc1nc(CC(=O)N2C[C@H](F)C[C@H]2C(=O)N[C@@H](c2ccccc2)c2ccc(C(C)C)cn2)nn1C [Compound 712, (2S,4R)-4-fluoro-1-[2-(5-methoxy-1-methyl-1H-1,2,4-triazol-3-yl)acetyl]-N-[(S)-phenyl[5-(propan-2-yl)pyridin-2-yl]methyl]pyrrolidine-2-carboxamide] | 15 | 330 |  |
| O=C(N[C@@H](c1ccccc1)c1ccc(C2CC2)c(F)n1)[C@@H]1C[C@@H](F)CN1C(=O)Cn1nncc1N1CC(F)(F)C1 [Compound 758, (2S,4R)-N-[(S)-(5-cyclopropyl-6-fluoropyridin-2-yl)(phenyl)methyl]-1-{2-[5-(3,3-difluoroazetidin-1-yl)-1H-1,2,3-triazol-1-yl]acetyl}-4-fluoropyrrolidine-2-carboxamide] | 32 | 1160 |  |
| Cc1cc(C(F)F)n(CC(=O)N2C[C@H](F)C[C@H]2C(=O)N[C@@H](c2ccccc2)c2ccc(C3CC3)c(F)n2)n1 [Compound 750, (2S,4R)-N-[(S)-(5-cyclopropyl-6-fluoropyridin-2-yl)(phenyl)methyl]-1-{2-[5-(difluoromethyl)-3-methyl-1H-pyrazol-1-yl]acetyl}-4-fluoropyrrolidine-2-carboxamide] | 11 | 260 |  |
| CC(C)c1cnc(C(NC(=O)[C@@H]2C[C@@H](F)CN2C(=O)Cc2cnn[nH]2)c2ccccc2)cc1C(F)(F)F (single isomer, unassigned) [Compound 608, (2S,4R)-4-fluoro-N-[(S) or (R)-phenyl[5-(propan-2-yl)-4-(trifluoromethyl)pyridin-2-yl]methyl]-1-[2-(1H-1,2,3-triazol-5-yl)acetyl]pyrrolidine-2-carboxamide] | 2860 | > 10000 |  |
| O=C(NC(c1ccccc1)c1ccc(C2CC2)cn1)[C@@H]1C[C@@H](F)CN1C(=O)Cc1cnn[nH]1 (single isomer, unassigned) [Compound 498, (2S,4R)-1-(2-(1H-1,2,3-triazol-5-yl)acetyl)-N—((R) or (S)-(5-cyclopropylpyridin-2-yl)(phenyl)methyl)-4-fluoropyrrolidine-2-carboxamide] | > 10000 |  | > 10000 |
| CC(=O)N(C)[C@H](C)C(=O)N1C[C@H](F)C[C@H]1C(=O)N[C@@H](c1ccccc1)c1ccc(C(C)C)cc1 [Compound 145, (2S,4R)-4-fluoro-1-[(2R)-2-(N-methylacetamido)propanoyl]-N-[(S)-phenyl[4-(propan-2-yl)phenyl]methyl]pyrrolidine-2-carboxamide] | 915 | > 10000 |  |
| CCn1ccnc(CC(=O)N2C[C@H](F)C[C@H]2C(=O)N[C@@H](c2ccccc2)c2ccc(C(C)C)c(F)n2)c1=O [Compound 806, (2S,4R)-1-[2-(4-ethyl-3-oxo-3,4-dihydropyrazin-2-yl)acetyl]-4-fluoro-N-[(S)-[6-fluoro-5-(propan-2-yl)pyridin-2-yl](phenyl)methyl] pyrrolidine-2-carboxamide] | 6 | 90 |  |
| O=C(N[C@@H](c1ccccc1)c1ccc(C2CC2)c(F)n1)[C@@H]1C[C@@H](F)CN1C(=O)Cn1nccc1C(F)(F)F [Compound 760, (2S,4R)-N-[(S)-(5-cyclopropyl-6-fluoropyridin-2-yl)(phenyl)methyl]-4-fluoro-1-{2-[5-(trifluoromethyl)-1H-pyrazol-1-yl]acetyl}pyrrolidine-2-carboxamide] | 17 | 370 |  |
| O=C(NC(c1ccc(C2CC2)c(F)n1)c1ccccc1F)[C@@H]1C[C@@H](F)CN1C(=O)Cn1nnnc1C(F)F (single isomer, unassigned) [Compound 657, (2S,4R)-N-[(S) or (R)-(5-cyclopropyl-6-fluoropyridin-2-yl)(2-fluorophenyl)methyl]-1-{2-[5-(difluoromethyl)-1H-1,2,3,4-tetrazol-1-yl]acetyl}-4-fluoropyrrolidine-2-carboxamide] | 127 | 1500 |  |
| O=C(N[C@@H](c1ccccc1)c1ccc(C2CC2)c(F)c1)[C@@H]1C[C@@H](F)CN1C(=O)CCc1n[nH]c(=O)[nH]1 [Compound 493, (2S,4R)-N-[(S)-(4-cyclopropyl-3-fluorophenyl)(phenyl)methyl]-4-fluoro-1-[3-(5-oxo-4,5-dihydro-1H-1,2,4-triazol-3-yl)propanoyl]pyrrolidine-2-carboxamide] | 103 | 15800 |  |
| O=C(N[C@@H](c1ccccc1)c1ccc(C2CC2)c(F)n1)[C@@H]1C[C@@H](F)CN1C(=O)Cc1nc(C(F)(F)F)co1 [Compound 738, (2S,4R)-N-[(S)-(5-cyclopropyl-6-fluoropyridin-2-yl)(phenyl)methyl]-4-fluoro-1-{2-[4-(trifluoromethyl)-1,3-oxazol-2-yl]acetyl}pyrrolidine-2-carboxamide] | 105 | 1210 |  |
| Cc1cn(CC(=O)N2C[C@H](F)C[C@H]2C(=O)N[C@H](c2ccccc2)c2ccc(C3(C)CC3)c(F)c2)c(=O)[nH]c1=O [Compound 557, (2S,4R)-4-fluoro-N—((R)-(3-fluoro-4-(1-methylcyclopropyl)phenyl)(phenyl)methyl)-1-(2-(5-methyl-2,4-dioxo-3,4-dihydropyrimidin-1(2H)-yl)acetyl)pyrrolidine-2-carboxamide] | 424 | 5780 |  |
